The source of these data is US20010012854A1, “MULTICATALYTIC PROTEASE INHIBITORS FOR USE AS ANTI-TUMOR AGENTS” (priority 1997, published 2001).

Where only a bound is given, the exact number is not on record here.

Experiment [1] concerns human leukemia HL-60 cells. The experiment in a line: Apoptosis in HL-60 cells (DNA fragmentation, PARP cleavage). It is filed as cell-based. Particulars: 30 μM, 3-4 h. The method, then: (§1) d. Flow cytometry nuclear staining and DNA fragmentation assays. DNA content analysis using flow cytometry was performed as described previously (Nicoletti, I., et al. J. Immunol. Methods 139:271-279, 1992). To assay nuclear morphology, cells were washed with PBS, fixed with 70% ethanol for 1 h, and stained with Hoechst 33258 (1 mM) for 30 min. The nuclear morphology of cells was visualized by fluorescence microscope (OLYMPUS BH2). DNA fragmentation was assayed as described previously (Grant, S., et al. Cancer Res. 52:6270-6278, 1992).
e. Whole cell extracts and western blot assay. To prepare whole cell extracts, cells were washed with PBS, and homogenized in lysis buffer (50 mM Tris, pH 8.0, 5 mM EDTA, 150 mM NaCl, 0.5% Nonidet P-40, 0.5 mM PMSF and 0.5 mM dithiothreitol). Following 30 min rocking at 4° C., the lysates were centrifuged and the supernatants were collected as whole cell extracts. The protein samples were then analyzed by sodium dodecyl sulfate-6% polyacrylamide gel electrophoresis (20-60 μg protein per lane) followed by the enhanced chemiluminescence Western blot assay using specific antibodies to CPP32, PARP, p21, p27 or RB.
Example 1 was designed to determine if MCP is involved in the survival signaling pathway(s) and if inhibition of MCP activity induces apoptosis. Human Jurkat T cells were treated with 30 μM Compound A for 4 h. […]

Experiment [2] has as its target T1, MCP chymotrypsin-like activity (Homo sapiens, UniProt P28074). The settings on record: literature values (Iqbal et al.; Rock et al.); read-out: Ki toward the proteasome chymotrypsin-like activity; cited from earlier work.
Experiment [3] deals with human prostate cancer DU145 cells. Put plainly: Detachment and apoptotic nuclear changes in DU145 cells. The class given is cell-based. Particulars: DU145, 16 h. The procedure:
(§2) c. Treatment of cells with MCP inhibitor. Cells were treated with a specified MCP Inhibitor, a standard anticancer agent (etoposide or cisplatin), or DMSO (vehicle). During this process, morphological changes and cellular detachment (for attached cell lines) were monitored. At each time point, cells were harvested, and used for measurement of apoptosis and other biochemical events. In Example 1, infra, involving YVAD-CMK, Compound A was first added to Jurkat T cells. This was followed immediately by dividing the cells into multiple tissue culture flasks. YVAD-CMK was then added to an indicated concentration.
as §1
Similar to PC-3, about half of human prostate cancer DU145 cells became detached after exposure to Compound A for 16 h.

The target of experiment [4] is T1, MCP chymotrypsin-like activity. The experiment in a line: Inhibition of MCP chymotrypsin-like activity. It is filed as biochemical. From the text: The rank-order potency for Jurkat cell killing precisely matched the order for MCP inhibition (Table 2, below).
Inhibition of the chymotrypsin-like activity of MCP by the disclosed MCP inhibitors has been reported, but these MCP inhibitors produced relatively little inhibition on the MCP trypsin-like activity and cathepsin B, a vacuolar cysteine protease (Iqbal, M., et al. J. Med Chem. 38: 2276-2277, 1995; Iqbal, M., et al. Bioorg. Med. Chem. Lett. 6: 287-290, 1996; and Harding, C. V., et al. J. Immuno. 155: 1767-1775, 1995). Furthermore, the order of potency for inhibition of the chymotrypsin-like activity was reported to be Compound A>Compound B>Compound C by using both isolated MCP and intact murine B cells (Iqbal, M., et al. J. Med Chem. 38: 2276-2277, 1995; Iqbal, M., et al. Bioorg. Med. Chem. Lett. 6: 287-290, 1996; and Harding, C. V., et al. J. Immuno. 155: 1767-1775, 1995).

Experiment [5] concerns oral aquamous carcinoma cell line SCC-25. Put plainly: Detachment and apoptosis in SCC-25 cells. The class given is cell-based, human. The procedure:
as §2, §1

Consider `CC(C)C[C@@H](C=O)NC(=O)[C@@H](CCCNC(=N)N[N+](=O)[O-])NC(=O)C(CCCCCCCCN1C(=O)c2ccccc2C1=O)C1CCCC1` (stereo partly drawn) [Compound A], for which, in experiment [1], the “Cleavage of PARP” value is reported as “complete cleavage of PARP”. Further, the Ki in experiment [2] was under 2 nM. In experiment [3], the Detached cells entry is “about half”; the Nuclear morphology result was “Almost all the detached and even the attached DU145 cells exhibited apoptosis-specific nuclear morphology”. The compound also showed an IC50 in experiment [4] of 2 nM. Also, in experiment [5], the “Induction of cellular detachment and apoptosis” value was “induced cellular detachment and apoptosis”.
